The values that follow come from the OligoGym collection.

HELM strings list units from the 5' end as sugar, base in round brackets, then linkage (d deoxyribose, r ribose, m 2'-O-methyl, p phosphodiester). Strings are as the collection lists them; they lack the last nucleoside at the 3' end of the tested compound. [moe] = 2'-O-(2-methoxyethyl) (MOE); [sp] = phosphorothioate linkage; [m5C] = 5-methylcytosine

This data set deals with PRNP. Description: mouse, dose not given. To be noted: ASO.
As for “RNA1{[moe]([m5C])[sp].[moe]([m5C])p.[moe](A)p.[moe](T)p.[moe](T)[sp].d(T)[sp].d(T)[sp].d([m5C])[sp].d(T)[sp].d(G)[sp].d(T)[sp].d(G)[sp].d([m5C])[sp].d(T)[sp].d(T)[sp].[moe](T)p.[moe](T)p.[moe]([m5C])[sp].[moe]([m5C])}$$$$ (last 3' nucleoside missing)”, the 3 h FOB score worked out at 4 score 0-7.
For the substance “RNA1{[moe]([m5C])[sp].[moe]([m5C])p.[moe](A)p.[moe]([m5C])p.[moe](A)[sp].d(T)[sp].d(A)[sp].d(T)[sp].d(A)[sp].d(G)[sp].d(G)[sp].d(G)[sp].d(T)[sp].d([m5C])[sp].d([m5C])[sp].[moe](T)p.[moe](T)p.[moe](T)[sp].[moe](A)}$$$$ (last 3' nucleoside missing)”, the 3 h FOB score worked out at 1.5 score 0-7.
The substance “RNA1{[moe]([m5C])[sp].[moe]([m5C])p.[moe](G)p.[moe](T)p.[moe](T)[sp].d([m5C])[sp].d(A)[sp].d(T)[sp].d([m5C])[sp].d(T)[sp].d(T)[sp].d(A)[sp].d(T)[sp].d(T)[sp].d([m5C])[sp].[moe]([m5C])p.[moe]([m5C])p.[moe](A)[sp].[moe](T)}$$$$ (last 3' nucleoside missing)” showed a 3 h FOB score of 0 score 0-7.
“RNA1{[moe]([m5C])[sp].[moe]([m5C])p.[moe](T)p.[moe](G)p.[moe](T)[sp].d(T)[sp].d(A)[sp].d(A)[sp].d(T)[sp].d(G)[sp].d(G)[sp].d(T)[sp].d(G)[sp].d(T)[sp].d([m5C])[sp].[moe]([m5C])p.[moe](A)p.[moe]([m5C])[sp].[moe](T)}$$$$ (last 3' nucleoside missing)” came in with a 3 h FOB score of 2.5 score 0-7.
Turning to “RNA1{[moe]([m5C])[sp].[moe]([m5C])p.[moe](T)p.[moe](T)p.[moe](T)[sp].d([m5C])[sp].d(A)[sp].d(T)[sp].d(A)[sp].d(T)[sp].d(A)[sp].d(T)[sp].d(G)[sp].d(T)[sp].d(T)[sp].[moe](A)p.[moe]([m5C])p.[moe](A)[sp].[moe](G)}$$$$ (last 3' nucleoside missing)”, the 3 h FOB score was 5 score 0-7.
For “RNA1{[moe]([m5C])[sp].[moe]([m5C])p.[moe]([m5C])p.[moe](A)p.[moe](G)[sp].d(T)[sp].d(G)[sp].d(T)[sp].d(T)[sp].d([m5C])[sp].d([m5C])[sp].d(A)[sp].d(T)[sp].d([m5C])[sp].d([m5C])[sp].[moe](T)p.[moe]([m5C])p.[moe]([m5C])[sp].[moe](A)}$$$$ (last 3' nucleoside missing)” the value was 2 score 0-7; for “RNA1{[moe]([m5C])[sp].[moe]([m5C])p.[moe]([m5C])p.[moe]([m5C])p.[moe](A)[sp].d(G)[sp].d(T)[sp].d(G)[sp].d(T)[sp].d(T)[sp].d([m5C])[sp].d([m5C])[sp].d(A)[sp].d(T)[sp].d([m5C])[sp].[moe]([m5C])p.[moe](T)p.[moe]([m5C])[sp].[moe]([m5C])}$$$$ (last 3' nucleoside missing)”, 0 score 0-7.
